Data published in the NIST ThermoML archive (doi:10.1021/acs.jced.9b00442).
Numbers after ± are expanded uncertainties.

Conditions: 100 kPa, Liquid; for electrical conductivity: Frequency=0.0006 MHz, Alternating current cell with electrodes; for viscosity: Concentric cylinders viscometry; for mass density: Vibrating tube method

CC[N+](C)(C)CCOC.O=S(=O)([N-]S(=O)(=O)C(F)(F)F)C(F)(F)F
Conditions	electrical conductivity [S/m]	mass density [kg/m3]	viscosity [mPa·s]
283.15 K	0.141 ± 0.003	–	–
288.15 K	0.182 ± 0.004	1440.5 ± 1.1	100.4 ± 4.1
289.15 K	–	1439.5 ± 1.1	–
290.15 K	–	1438.6 ± 1.1	–
291.15 K	–	1437.6 ± 1.1	–
292.15 K	–	1436.7 ± 1.1	–
293.15 K	0.23 ± 0.005	1435.7 ± 1.1	78.3 ± 3.2
294.15 K	–	1434.8 ± 1.1	–
295.15 K	–	1433.8 ± 1.1	–
296.15 K	–	1432.8 ± 1.1	–
297.15 K	–	1431.9 ± 1.1	–
298.15 K	0.285 ± 0.006	1431 ± 1.1	61.5 ± 2.5
299.16 K	–	1430 ± 1.1	–
300.16 K	–	1429.1 ± 1.1	–
301.15 K	–	1428.1 ± 1.1	–
302.15 K	–	1427.2 ± 1.1	–
303.15 K	0.347 ± 0.007	1426.2 ± 1.1	49.5 ± 2
304.15 K	–	1425.3 ± 1.1	–
305.15 K	–	1424.4 ± 1.1	–
306.15 K	–	1423.4 ± 1.1	–
307.15 K	–	1422.5 ± 1.1	–
308.15 K	0.415 ± 0.008	1421.6 ± 1.1	40.5 ± 1.6
309.15 K	–	1420.6 ± 1.1	–
310.15 K	–	1419.7 ± 1.1	–
311.15 K	–	1418.8 ± 1.1	–
312.15 K	–	1417.8 ± 1.1	–
313.15 K	0.489 ± 0.01	1416.9 ± 1.1	33.9 ± 1.4
314.15 K	–	1416 ± 1.1	–
315.15 K	–	1415.1 ± 1.1	–
316.15 K	–	1414.1 ± 1.1	–
317.15 K	–	1413.2 ± 1.1	–
318.15 K	0.57 ± 0.011	1412.3 ± 1.1	28.2 ± 1.1
319.15 K	–	1411.4 ± 1.1	–
320.15 K	–	1410.4 ± 1.1	–
321.15 K	–	1409.5 ± 1.1	–
322.15 K	–	1408.6 ± 1.1	–
323.15 K	0.659 ± 0.013	1407.7 ± 1.1	24 ± 1
324.15 K	–	1406.8 ± 1.1	–
325.15 K	–	1405.9 ± 1.1	–
326.15 K	–	1404.9 ± 1.1	–
327.15 K	–	1404 ± 1.1	–
328.15 K	–	–	20.6 ± 0.8
